Values after ≈ are worked out from the molar mass of the structure shown.
How the values were obtained:
[1] = tested on: S. aureus (ATCC 29213); assay: MIC80 on S. aureus; assay type: cell-based, Staphylococcus aureus; details: Staphylococcus aureus, ATCC 29213 / MSSA, read-out: MIC80 S. aureus, S. aureus ATCC 29213 (MSSA); ≥80% growth inhibition
[2] = tested on: S. aureus and/or S. saprophyticus; assay: MIC80 on S. aureus and/or S. saprophyticus; assay type: cell-based; details: read-out: MIC80 against S. aureus and/or S. saprophyticus
[3] = tested on: MDR Enterobacteriaceae; assay: organism not typed; assay type: cell-based; details: for MIC80: read-out: MIC80 on MDR Enterobacteriaceae
Experimental: (§1) To further characterize the compounds, the minimal inhibitory concentration (MIC80) were determined for selected compounds. MIC80 is defined as the compound concentration at which ≥80% bacterial growth is inhibited compare to untreated controls. Meanwhile, for the selected compounds, cytotoxicity assays (CC50) were performed on a HepG2-derived hepatoblastoma cell line (HEPDES19). […] For CC50 evaluation, soluble tetrazolium dye (MTS) was used to measure mitochondrial toxicity in a human hepatoblastoma cell line (18). The bacteria (E. coli, S. saprophyticus and A. baumannii) used in MIC80 measurements were the same as that in the primary screening, but for Staphylococcus, S. aureus is used primarily because it is a common pathogen in Staphylococcaeae family, while S. saprophyticus is part of the normal human flora.
(§2) All these MDR-bacteria are at least resistant to two classes of the antibiotics among five groups and/or specific antibiotics including quinolones/fluorquinolones, carbapenems, cephalosporins, aminoglycosides and piperacillin-tazobactam.

[4] = tested on: Morganella morganii; assay: microbe, parasite or virus in culture; assay type: cell-based
Experimental: as §1, §2

[5] = tested on: Citrobacter koseri; assay: microbe, parasite or virus in culture; assay type: cell-based
Experimental: as §1, §2

[6] = tested on: Klebsiella pneumoniae; assay: microbe, parasite or virus in culture; assay type: cell-based
Experimental: as §1, §2

[7] = tested on: MDR E. coli; assay: microbe, parasite or virus in culture; assay type: cell-based
Experimental: as §1, §2

[8] = tested on: Enterobacter cloacae complex; assay: microbe, parasite or virus in culture; assay type: cell-based
Experimental: as §1, §2

[9] = tested on: E. coli (ATCC 35218); assay: microbe, parasite or virus in culture; assay type: cell-based; details: for MIC80 E. coli: E. coli ATCC 35218; for MIC80: Escherichia coli, ATCC35218, read-out: MIC80 E. coli, E. coli ATCC 35218
[10] = tested on: HepG2-derived hepatoblastoma cell line (HEPDES19); assay: Cytotoxicity assay (CC50), MTS; assay type: cell-based, human; details: HEPDES19 cells
[11] = Cytotoxicity assay (CC50), MTS; assay type: cell-based, human; details: human, HepG2-derived hepatoblastoma cell line (HEPDES19), HEPDES19 cells
[12] = tested on: Acinetobacter baumannii (Abl, from a patient); assay: microbe, parasite or virus in culture; assay type: cell-based; details: for MIC80: Acinetobacter baumannii, read-out: MIC80 A. baumannii, A. baumannii Ab1, MDR patient isolate
[13] = tested on: Staphylococcus epidermidis; assay: MIC80 on S. epidermidis; assay type: cell-based
Experimental: as §1, with “(HEPDES19). […] For the MIC80 measurements, a 1.5 fold dilution series of the compounds was prepared in Mueller-Hinton II broth.” for “(HEPDES19).”, “flora. S. aureus (ATCC 29213) is methicillin-sensitive Staphylococcus aureus (MSSA) strain and it was used as a model strain to measure the MIC80.” for “flora.”
(§3) It was also tested whether compounds #63 and #285 can inhibit other coagulase-negative Staphylococcus (CNS) including S. epidermidis, S. hominis, etc. […] .

[14] = tested on: S. aureus ATCC strains and methicillin-resistant Staphylococcus aureus (MRSA); assay: MIC80 on S. aureus ATCC strains and MRSA; assay type: cell-based
Experimental: as §1

[15] = tested on: Staphylococcus saprophyticus (ATCC BAA-750); assay: MIC80 on S. saprophyticus; assay type: cell-based; details: Staphylococcus saprophyticus, ATCCBAA750; S. saprophyticus ATCC BAA-750; read-out: MIC80 S. sapro
Experimental: as §1

[16] = tested on: Coagulase negative Staphylococcus; assay: MIC80 on coagulase negative Staphylococcus; assay type: cell-based
Experimental: as §1, with “(HEPDES19). […] For the MIC80 measurements, a 1.5 fold dilution series of the compounds was prepared in Mueller-Hinton II broth.” for “(HEPDES19).”, “flora. S. aureus (ATCC 29213) is methicillin-sensitive Staphylococcus aureus (MSSA) strain and it was used as a model strain to measure the MIC80.” for “flora.”
as §3

[17] = tested on: Staphylococcus hominis; assay: MIC80 on S. hominis; assay type: cell-based
Experimental: as §1, with “(HEPDES19). […] For the MIC80 measurements, a 1.5 fold dilution series of the compounds was prepared in Mueller-Hinton II broth.” for “(HEPDES19).”, “flora. S. aureus (ATCC 29213) is methicillin-sensitive Staphylococcus aureus (MSSA) strain and it was used as a model strain to measure the MIC80.” for “flora.”
as §3

[18] = Klebsiella pneumoniae, Kp1 (Klebsiella pneumonia)
[19] = Klebsiella pneumoniae, Kp6 (Klebsiella pneumonia)
[20] = Escherichia coli, Ec1 (MDR E. coli)
[21] = Escherichia coli, Ec2 (MDR E. coli)
[22] = Escherichia coli, Ec3 (MDR E. coli)
[23] = Escherichia coli, Ec4 (MDR E. coli)

SMILES: O=C(Sc1cccccc1=O)c1ccccc1 [Compound 364]
- MIC80 [1]: 13.2 µM (≈ 3.2 µg/mL)
- MIC80 [2]: < 20 µM
- MIC80 [3]: ≤ 20 µM
- MIC80 ([4]; Morganella morganii): > 33.3 µM
- MIC80 ([5]; Citrobacter koseri): 33.3 µM (≈ 8.07 µg/mL)
- MIC80 [6, 18]: > 33.3 µM
- MIC80 [6, 19]: > 33.3 µM
- MIC80 [7, 20]: 33.3 µM (≈ 8.07 µg/mL)
- MIC80 [7, 21]: 14.8 µM (≈ 3.59 µg/mL)
- MIC80 [7, 22]: 22.2 µM (≈ 5.38 µg/mL)
- MIC80 [7, 23]: 33.3 µM (≈ 8.07 µg/mL)
- MIC80 ([8]; Enterobacter cloacae): 33.3 µM (≈ 8.07 µg/mL)
- MIC80 E. coli [9]: 19.8 µM (≈ 4.8 µg/mL)
- MIC80 [9]: < 30 µM
- CC50 [10]: 67 µM
- CC50 [11]: > 50 µM

SMILES: CCn1cc(C(=O)O)c(=O)c2cnc(N3CCN(C(=O)NC)CC3)nc21 [Compound 322]
- inhibition of MDR Enterobacteriaceae (in words) ([3]; except one MDR E. coli and one Enterobacter cloacae complex strain): No obvious inhibition
- MIC80 ([4]; Mm1 (Morganella morganii)): >100 µM
- MIC80 ([5]; Ck1 (Citrobacter koseri)): >100 µM
- MIC80 ([6]; Kp1 (Klebsiella pneumonia)): >100 µM
- MIC80 ([6]; Kp6 (Klebsiella pneumonia)): >100 µM
- MIC80 ([7]; Ec1 (MDR E. coli)): >100 µM
- MIC80 ([7]; Ec2 (MDR E. coli)): 66.7 µM (≈ 24 µg/mL)
- MIC80 ([7]; Ec3 (MDR E. coli)): >100 µM
- MIC80 ([7]; Ec4 (MDR E. coli)): >100 µM
- MIC80 ([7]; Ec5 (MDR E. coli)): >100 µM
- MIC80 ([7]; one MDR E. coli): 44.4 µM (≈ 16 µg/mL)
- MIC80 ([8]; Ecc1 (Enterobacter cloacae complex)): 44.4 µM (≈ 16 µg/mL)
- MIC80 ([8]; one Enterobacter cloacae complex strain): 66.7 µM (≈ 24 µg/mL)
- MIC80 A. baumannii ([12]; A. baumannii Ab1, MDR patient isolate): >100 µM
- inhibition of E. coli (in words) [9]: only modestly inhibited
- MIC80 E. coli [9]: 29.6 µM (≈ 10.7 µg/mL)
- CC50 [10]: ≥ 100 µM

SMILES: O=C(Oc1cccccc1=O)c1ccc(Cl)cc1 [Compound 63]
- MIC80 ([13]; Se1 (Staphylococcus epidermidis)): 8.8 µM (≈ 2.29 µg/mL)
- MIC80 ([13]; Se2 (Staphylococcus epidermidis)): 8.8 µM (≈ 2.29 µg/mL)
- MIC80 ([13]; Se3 (Staphylococcus epidermidis)): 8.8 µM (≈ 2.29 µg/mL)
- MIC80 ([13]; Se4 (Staphylococcus epidermidis)): 8.8 µM (≈ 2.29 µg/mL)
- MIC80 ([13]; Se5 (Staphylococcus epidermidis)): 8.8 µM (≈ 2.29 µg/mL)
- MIC80 [1]: 16.5 µM (≈ 4.3 µg/mL)
- MIC80 [2]: < 20 µM
- MIC80 ([14]; ATCC 25923 / MRSA, S. aureus ATCC 25923): 8.8 µM (≈ 2.29 µg/mL)
- MIC80 ([14]; ATCC 29213 / MRSA, S. aureus ATCC 29213 (Table 3)): 8.8 µM (≈ 2.29 µg/mL)
- MIC80 ([14]; BAA-976 / MRSA, S. aureus ATCC BAA 976): 13.2 µM (≈ 3.44 µg/mL)
- MIC80 ([14]; BAA-977 / MRSA, S. aureus ATCC BAA 977): 8.8 µM (≈ 2.29 µg/mL)
- MIC80 ([14]; MRSA, Sa1 (MRSA)): 8.8 µM (≈ 2.29 µg/mL)
- MIC80 ([14]; MRSA, Sa2 (MRSA)): 8.8 µM (≈ 2.29 µg/mL)
- MIC80 ([14]; MRSA, Sa3 (MRSA)): 8.8 µM (≈ 2.29 µg/mL)
- MIC80 ([14]; MRSA, Sa5 (MRSA)): 8.8 µM (≈ 2.29 µg/mL)
- MIC80 ([14]; MRSA, Sa6 (MRSA)): 8.8 µM (≈ 2.29 µg/mL)
- MIC80 ([14]; MRSA, Sa7 (MRSA)): 8.8 µM (≈ 2.29 µg/mL)
- MIC80 ([14]; MRSA, Sa8 (MRSA)): 8.8 µM (≈ 2.29 µg/mL)
- MIC80 ([14]; MRSA, Sa9 (MRSA)): 8.8 µM (≈ 2.29 µg/mL)
- MIC80 ([14]; MRSA, Sa10 (MRSA)): 8.8 µM (≈ 2.29 µg/mL)
- MIC80 ([14]; MRSA, Sa11 (MRSA)): 8.8 µM (≈ 2.29 µg/mL)
- MIC80 ([14]; MRSA, Sa12 (MRSA)): 8.8 µM (≈ 2.29 µg/mL)
- MIC80 ([14]; MRSA, Sa14 (MRSA)): 8.8 µM (≈ 2.29 µg/mL)
- MIC80 ([14]; MRSA, Sa15 (MRSA)): 8.8 µM (≈ 2.29 µg/mL)
- MIC80 ([14]; MRSA, Sa16 (MRSA)): 8.8 µM (≈ 2.29 µg/mL)
- MIC80 ([14]; MRSA, Sa17 (MRSA)): 8.8 µM (≈ 2.29 µg/mL)
- MIC80 ([14]; MRSA, Sa18 (MRSA)): 8.8 µM (≈ 2.29 µg/mL)
- MIC80 ([14]; MRSA, Sa19 (MRSA)): 8.8 µM (≈ 2.29 µg/mL)
- MIC80 ([14]; MRSA, Sa20 (MRSA)): 8.8 µM (≈ 2.29 µg/mL)
- MIC80 ([14]; MRSA, Sa21 (MRSA)): 8.8 µM (≈ 2.29 µg/mL)
- MIC80 ([14]; MRSA, Sa22 (MRSA)): 8.8 µM (≈ 2.29 µg/mL)
- MIC80 ([14]; MRSA, Sa23 (MRSA)): 8.8 µM (≈ 2.29 µg/mL)
- MIC80 [15]: 9.2 µM (≈ 2.4 µg/mL)
- MIC80 [12]: 83.4 µM (≈ 21.7 µg/mL)
- MIC80 [9]: 111 µM (≈ 29 µg/mL)
- MIC80 ([16]; CNS1 (Coagulase negative Staphylococcus)): 13.2 µM (≈ 3.44 µg/mL)
- MIC80 ([16]; CNS2 (Coagulase negative Staphylococcus)): 5.9 µM (≈ 1.54 µg/mL)
- MIC80 ([17]; Sh1 (Staphylococcus hominis)): 8.8 µM (≈ 2.29 µg/mL)
- MIC80 ([17]; Sh2 (Staphylococcus hominis)): 13.2 µM (≈ 3.44 µg/mL)
- MIC80 ([17]; Sh3 (Staphylococcus hominis)): 8.8 µM (≈ 2.29 µg/mL)
- CC50 [10]: ≥ 100 µM
- CC50 [11]: > 50 µM

SMILES: Cc1ccc(C(=O)Sc2cccccc2=O)cc1 [Compound 284]
- MIC80 [1]: 15 µM (≈ 3.84 µg/mL)
- MIC80 [2]: < 20 µM
- MIC80 ([3]; Escherichia coli): ≤ 20 µM
- MIC80 ([4]; Morganella morganii): 19.8 µM (≈ 5.08 µg/mL)
- MIC80 ([5]; Citrobacter koseri): 8.8 µM (≈ 2.26 µg/mL)
- MIC80 [6, 18]: 5.9 µM (≈ 1.51 µg/mL)
- MIC80 [6, 19]: 29.6 µM (≈ 7.59 µg/mL)
- MIC80 [7, 20]: 5.9 µM (≈ 1.51 µg/mL)
- MIC80 [7, 21]: 3.9 µM (≈ 1 µg/mL)
- MIC80 [7, 22]: 5.9 µM (≈ 1.51 µg/mL)
- MIC80 [7, 23]: 8.8 µM (≈ 2.26 µg/mL)
- MIC80 ([7]; Escherichia coli, Ec5 (MDR E. coli)): 29.6 µM (≈ 7.59 µg/mL)
- MIC80 ([8]; Enterobacter cloacae): 8.8 µM (≈ 2.26 µg/mL)
- MIC80 [15]: 44.4 µM (≈ 11.4 µg/mL)
- MIC80 [12]: 55.6 µM (≈ 14.3 µg/mL)
- MIC80 E. coli [9]: 24.1 µM (≈ 6.18 µg/mL)
- MIC80 [9]: < 30 µM
- CC50 [11]: > 50 µM
